Counter-ions that a name gives are not always drawn.
Assays:
[1] = system: 3,4-dihydroxyphenyl-acetic acid (DOPAC) in the striatum; assay: In vivo test: neurochemistry, 3,4-dihydroxyphenyl-acetic acid in the striatum; details: rat, n=4
Excerpt: After the behavioral activity sessions the rats were decapitated and their brains rapidly taken out and put on an ice-cold petri-dish. The limbic forebrain, the striatum, the frontal cortex and the remaining hemispheral parts of each rat were dissected and frozen. Each brain part was subsequently analyzed with respect to its content of monoamines and their metabolites. The monoaminergic indices analyzed were dopamine (DA), 3,4-dihydroxyphenyl-acetic acid (DOPAC), homovanillic acid (HVA), 3-methoxytyramine (3-MT), serotonin (5-HT), 5-hydroxyindole acetic acid (5-HIAA), and noradrenaline (NA). All monoaminergic indices in the dissected tissue were analyzed by means of HPLC with electrochemical detection as described by Svensson K, et al., 1986, Naunyn-Schmiedeberg's Arch Pharmacol 334: 234-245 and references cited therein.

[2] = system: spontaneous behavior (locomotor activity); assay: In vivo test: behavior, spontaneous locomotor activity in non-habituated/nonpretreated rats; details: rat; for locomotor activity in nonpretreated rats: 100 μmol/kg s.c., 30-60 min
[3] = In vivo test: pharmacokinetics in the rat
Procedure: To determine oral availability (F); and plasma half life (t1/2) of test compounds of this invention experiments performed in the rat were undertaken. On day one rats were implanted with one catheter in the jugular vein and one catheter in the carotid artery under ketamine anesthesia. On day three test compound is injected the either orally or in the jugular vein catheter. Blood samples are collected during 8 hours from the arterial catheter. The blood samples were heparinized and centrifuged. Plasma is collected from the centrifuged samples and frozen. The levels of test compound were subsequently determined in each sample by means of gas chromatography mass spectrometry (Hewlett-Packard 5972MSD). […]

[4] = system: d-amphetamine induced hyperactivity; assay: In vivo test: behavior, d-amphetamine induced hyperactivity; details: rat, d-amphetamine pretreated, n=4
[5] = system: locomotor activity of habituated rats; assay: In vivo test: behavior, locomotor activity of habituated rats

`CCCN1CCN(c2ccc(Cl)c(C(F)(F)F)c2)CC1` (as salt: HCl) showed a melting point of 268 °C.

Work on `CCCN1CCN(c2cc(C(F)(F)F)ccc2Cl)CC1` (as salt: HCl) yielded a melting point of 234 °C.

In the case of `CCCN1CCN(c2ccc(F)c(C(F)(F)F)c2)CC1` (as salt: HCl), the melting point was 238 °C.

`CCCN1CCN(c2cc(F)cc(C(F)(F)F)c2)CC1` (as salt: HCl) gave a melting point of 242 °C.

`CCCN1CCC(c2ccc(Cl)c(C(F)(F)F)c2)CC1` (as salt: HCl) [Example 9, 4-(4-Chloro-3-trifluoromethyl-phenyl)-1-propyl-piperidine] gave a melting point of 218 to 220 °C.

`CCCN1CCN(c2ccc(Cl)c([N+](=O)[O-])c2)CC1` (as salt: HCl) [Example 19, 1-(4-Chloro-3-nitro-phenyl)-4-propyl-piperazine] showed a melting point of 249 °C.

Work on `CCCN1[C@H](C)CN(c2ccc(Cl)c(C(F)(F)F)c2)C[C@@H]1C` (as salt: HCl) [Example 33, cis-4-(4-Chloro-3-trifluoromethyl-phenyl)-2,6-dimethyl-1-propyl-piperazine] yielded a melting point of 256 °C.

Compound `CCCN1[C@H](C)CN(c2ccc(F)c(C(F)(F)F)c2)C[C@@H]1C` (as salt: HCl) [Example 34, cis-4-(4-Fluoro-3-trifluoromethyl-phenyl)-2,6-dimethyl-1-propyl-piperazine] has a melting point of 221 °C.

Work on `CCCN1[C@H](C)CN(c2ccc(Cl)c(Cl)c2)C[C@@H]1C` (as salt: HCl) [Example 35, cis-4-(3,4-dichloro-phenyl)-2,6-dimethyl-1-propyl-piperazine] yielded a melting point of 225 °C.

Compound `CCCN1CCC(c2ccc(F)c(C(F)(F)F)c2)CC1` (as salt: HCl) [Example 43, 4-(4-Fluoro-3-trifluoromethylphenyl)-1-propyl-piperidine] has a melting point of 195 to 197 °C.

Work on `CCCN1CCC(c2cc(F)cc(C(F)(F)F)c2)CC1` (as salt: HCl) [Example 44, 4-(3-Fluoro-5-trifluoromethylphenyl)-1-propyl-piperidine] yielded a melting point of 215 °C.

With `CCCN1CCN(c2cccc(C(F)(F)F)c2)CC1` [1-propyl-4-(3-trifluoromethyl-phenyl)-piperazine, reference compound] the “3,4-dihydroxyphenyl-acetic acid in the striatum” value (“3,4-dihydroxyphenyl-acetic acid” below) ([1]; 50 μmol/kg s.c.) was 3358±162 ng/g tissue, the “behavioral inhibition (locomotor activity)” value ([2]; 50 μmol/kg s.c., n=4) was 271±137 cm/60 min and the “oral availability (F)” value [3] was 9,5%.

With `CCCN1CCC(c2ccc(Cl)c(C(F)(F)F)c2)CC1` [Example 9, 4-(4-Chloro-3-trifluoromethyl-phenyl)-1-propyl-piperidine] the d-amphetamine induced hyperactivity ([4]; 50 μmol/kg s.c.) was 3399±1247 cm/30 min, the “3,4-dihydroxyphenyl-acetic acid” value ([1]; 50 μmol/kg s.c.) was 1680±136 ng/g tissue and the “spontaneous behavior (distance traveled)” value ([2]; 50 μmol/kg s.c.) was 944±114 cm/30 min. For the same compound, the “oral availability (F)” value [3] was 55% and the “locomotor activity of habituated rats” value ([5]; habituated rats, 50 μmol/kg s.c.) was 1300±761 cm/60 min.

In the case of `CCCN1CCN(c2ccc(Cl)c([N+](=O)[O-])c2)CC1` [Example 19, 1-(4-Chloro-3-nitro-phenyl)-4-propyl-piperazine], the d-amphetamine induced hyperactivity ([4]; 100 μmol/kg s.c.) was 3767±2332 cm/60 min, the “3,4-dihydroxyphenyl-acetic acid” value ([1]; 100 μmol/kg s.c.) was 1693±104 ng/g tissue and the “locomotor activity in nonpretreated rats” value ([2]; n=4) was 266±89 cm/30 min.

For `CCCN1[C@H](C)CN(c2ccc(F)c(C(F)(F)F)c2)C[C@@H]1C` [Example 34, cis-4-(4-Fluoro-3-trifluoromethyl-phenyl)-2,6-dimethyl-1-propyl-piperazine], the “3,4-dihydroxyphenyl-acetic acid” value ([1]; 33 μmol/kg s.c.) was 1278±143 ng/g tissue and the “spontaneous behavior in the habituated rat” value ([5]; habituated rat, 33 μmol/kg s.c., n=4) was 919±143 cm/60 min.

For `CCCN1[C@H](C)CN(c2ccc(Cl)c(Cl)c2)C[C@@H]1C` [Example 35, cis-4-(3,4-dichloro-phenyl)-2,6-dimethyl-1-propyl-piperazine], the d-amphetamine induced hyperactivity ([4]; 100 μmol/kg s.c.) was 6514±3374 cm/60 min.

With `CCCN1CCC(c2ccc(F)c(C(F)(F)F)c2)CC1` [Example 43, 4-(4-Fluoro-3-trifluoromethylphenyl)-1-propyl-piperidine] the “3,4-dihydroxyphenyl-acetic acid” value ([1]; 100 μmol/kg s.c.) was 1895±100 ng/g tissue and the “locomotor activity in nonpretreated rats” value ([2]; n=4) was 540±128 cm/30 min.

Reference: patent USRE41315E1, “Modulators of dopamine neurotransmission” (NSAB, Filial af NeuroSearch Sweden AB, priority 1999, dated 2010)
